# Assay results: patent US20190054067A1, “COMPOSITIONS AND METHODS FOR TREATING COMPULSIVE-LIKE BEHAVIOR IN A SUBJECT” (UNIVERSITY OF THE SCIENCES, priority 2016, published 2019)
# What was measured:
# [1] = system: compulsive-like BIG male mice; assay: compulsive-like marble burying (MB) behavior; type: in vivo, Mus musculus; details: for marble-burying behavior (marbles at least 2/3 buried) vs control: acute, 2 h after administration; for suppression of MB vs control: chronic, fifth week (day 31), 2 h after injection
# Procedure: (§1) Compulsive-like BIG male mice, Mus musculus, were raised on wood shavings in polypropylene cages (27×17×12 cm) under controlled temperature (22±1° C.) and light (12:12 light-dark cycle) with free access to food (Purina Mills, Lab Diet Mouse Diet #5015, St. Louis, Mo.) and water. Animals were approximately 12-16 weeks of age at the start of each experiment.
# (§2) Deformylflustrabromine hydrochloride (dFBr; Abcam Biochemicals) was dissolved in physiological saline (pH=6.7) to yield final doses of 2.0 mg/kg (0.27 mg/mL), 4 mg/kg (0.53 mg/mL) and 6 mg/kg (0.80 mg/mL). Saline was used as a vehicle control (0 mg/kg). A mouse of 40 g received an injection volume of 0.3 mL. Injection volumes were proportionally adjusted according to the body weight of individual animals.
# (§3) Acute Study: Male BIG mice were divided into four treatment groups comprising vehicle (sterile saline), 2 mg/kg, 4 mg/kg and 6 mg/kg. Animals in each group (n=12 per group) were tested for nesting on day 1, MB on day 3 and open field (OF) on day 5. On the first day of testing animals randomly received dFBr or vehicle subcutaneously and in subsequent tests received the same dose. Days 2 and 4 were employed to avoid any residual effects of dFBr from previous administration. For nesting, data were collected after 1, 2, 3, 4, 5 and 24 h due to the progressive nature of the NB (The BIG mice typically get excited and indulge in excessive and repetitive NB when introduced to cotton for the first 3-4 h in the light cycle. This excessive and repetitive nesting activity resumes again in the dark cycle). MB and OF behavior was performed 2 h after dFBr administration (FIG. 1).
# (§4) Chronic Study; Since the foundation of the animal model was established through effective reversal of compulsive-like NB and MB behaviors by chronic fluoxetine treatment, a chronic regimen was also conducted to establish the sustained and long term effects of dFBr on NB and MB. Animals belonging to 0, 2, 4 and 6 mg/kg dose group (n=12 per group) received single subcutaneous injection of dFBr or saline daily for 32 days. NB, MB and OF behaviors were assessed in the final week (weeks 5) after dFBr administration (NB after 1, 2, 3, 4, 5 and 24 h, and MB after 2 h of drug injection). NB was performed on day 30, MB on day 31 and OF on day 32 (FIG. 1).
# The marble-burying test is an effective test for determining compulsive-like behavior in mice. […] Two hours after dFBr administration, compulsive-like male mice were individually introduced to a polypropylene cage (37×21×14 cm) containing 20 glass marbles (10 mm in diameter) evenly spaced on 5 cm deep wood chip bedding without access to food or water for 20 min. Testing was carried out in the testing room separate from the housing room. The total number of marbles buried at least ⅔ in the 20-min period was quantified as compulsive-like digging behavior. After the 20-min test, the animals were returned to their home cages.
# (§5) Statistical analysis was performed in Graphpad Prism (GraphPad Software, Inc) and Statistical Analysis System Software (Version 9.4, Cary, N.C.). Nest-building (grams of cotton), marble burying (number of marbles at least ⅔ buried) and open field measures (time in center and total distance travelled) were expressed as the mean±standard error of the mean (SEM). The nest building data were shown as grams of cotton used, whereas the statistical analysis was conducted on the square-root transformed nesting scores in order to normalize the data (Bult & Lynch, 2000, Behavior Genetics 30:193-206). Nesting scores at different time points, marble burying and open field results were analyzed by one-way analysis of variance (ANOVA), whereas overall drug and drug by time interaction effect between 0-5 hours was done by two-way analysis of variance (ANOVA). Pairwise comparisons for significant differences were tested by the post-hoc Bonferroni multiple comparison test. A probability level of p<0.05 was used as an index of statistical significance in all cases.
# [2] = system: compulsive-like BIG male mice; assay: compulsive-like nest building (NB) behavior; type: in vivo, Mus musculus; details: for overall nesting scores vs control (saline) / overall nesting scores vs control: 0-24 h; for suppression of NB vs control: chronic (daily s.c., tested day 30); for overall nesting scores vs control: chronic; for effect on NB (ANOVA over dose groups): chronic, 2, 4 and 6 mg/kg groups
# Procedure: as §1, §2, §3, §4
# Nest-building behavior was performed to assess compulsive-like behavior in the mice. For both acute and chronic studies, immediately following subcutaneous injection of dFBr, compulsive-like male mice were singly housed and provided with a pre-weighed roll of cotton (Mountain Mist cotton batting, Troy, Inc., Chicago, Ill.) in the cage-top food hopper. The cotton roll was weighed after 1, 2, 3, 4, 5 and 24 hours. Nesting behavior was quantified by the grams of cotton used during each testing period.
# as §5
# [3] = target: high sensitivity (HS) α4β2 receptors (Homo sapiens, UniProt P17787+P43681); details: cited from earlier work
# Chain of high sensitivity (HS) α4β2 receptors (P43681 29-627 limits assumed): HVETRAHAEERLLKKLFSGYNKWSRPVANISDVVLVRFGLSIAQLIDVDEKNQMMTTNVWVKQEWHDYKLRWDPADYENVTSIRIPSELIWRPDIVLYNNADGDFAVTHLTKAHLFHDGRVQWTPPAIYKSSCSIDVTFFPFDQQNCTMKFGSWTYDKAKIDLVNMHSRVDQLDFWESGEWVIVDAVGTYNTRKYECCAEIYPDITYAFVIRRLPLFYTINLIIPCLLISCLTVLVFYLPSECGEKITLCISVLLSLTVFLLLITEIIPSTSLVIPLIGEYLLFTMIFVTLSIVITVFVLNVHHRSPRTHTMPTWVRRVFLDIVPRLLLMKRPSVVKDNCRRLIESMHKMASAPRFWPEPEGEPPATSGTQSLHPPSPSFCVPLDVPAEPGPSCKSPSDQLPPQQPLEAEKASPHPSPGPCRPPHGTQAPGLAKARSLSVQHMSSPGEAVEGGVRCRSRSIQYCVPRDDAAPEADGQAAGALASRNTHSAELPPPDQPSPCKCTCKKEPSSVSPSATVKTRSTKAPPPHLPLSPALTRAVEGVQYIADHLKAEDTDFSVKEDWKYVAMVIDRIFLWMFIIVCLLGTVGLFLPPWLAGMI
# Chain of high sensitivity (HS) α4β2 receptors (P17787 26-502): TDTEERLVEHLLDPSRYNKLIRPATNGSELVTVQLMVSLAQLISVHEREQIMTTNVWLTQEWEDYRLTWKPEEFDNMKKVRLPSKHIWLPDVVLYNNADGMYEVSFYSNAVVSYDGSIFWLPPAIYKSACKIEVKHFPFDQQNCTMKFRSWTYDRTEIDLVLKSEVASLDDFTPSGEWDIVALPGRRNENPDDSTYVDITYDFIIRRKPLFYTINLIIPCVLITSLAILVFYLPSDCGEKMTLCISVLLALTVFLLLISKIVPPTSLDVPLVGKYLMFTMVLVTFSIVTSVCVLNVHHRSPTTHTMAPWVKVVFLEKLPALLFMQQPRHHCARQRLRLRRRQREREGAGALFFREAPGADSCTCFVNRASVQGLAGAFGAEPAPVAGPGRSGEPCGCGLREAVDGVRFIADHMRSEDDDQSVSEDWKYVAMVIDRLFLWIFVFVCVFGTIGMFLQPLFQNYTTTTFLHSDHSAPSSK
smiles,measurement,setting,value
"C=CC(C)(C)c1[nH]c2cc(Br)ccc2c1CCNC [dFBr, 2-[6-bromo-2-(2-methylbut-3-en-2-yl)-1H-indol-3-yl]-N-methylethanamine]",marble-burying behavior (marbles at least 2/3 buried) vs control,[1]; 2 mg/kg s.c.,decreased marble-burying behavior
same,marble-burying behavior (marbles at least 2/3 buried) vs control,[1]; 4 mg/kg s.c.,decreased marble-burying behavior
same,marble-burying behavior (marbles at least 2/3 buried) vs control,[1]; 6 mg/kg s.c.,decreased marble-burying behavior
same,reduction of MB behavior vs control,"[1]; chronic regimen, 2 mg/kg, 2 h time point",not significant
same,suppression of MB vs control,[1]; 4 mg/kg,maximum suppression of MB
same,suppression of MB vs control,[1]; 6 mg/kg,maximum suppression of MB
same,nesting (cotton used) vs control (saline),"[2]; acute, 2 mg/kg s.c., 0-1 h",no significant attenuation of nesting
same,overall nesting scores vs control (saline),"[2]; acute, 2 mg/kg s.c.",significantly below the control group
same,nesting (cotton used) vs control (saline),"[2]; acute, 2 mg/kg s.c., 1-2 h",no significant effect
same,nesting (cotton used) vs control (saline),"[2]; acute, 2 mg/kg s.c., 2-3 h",No significant difference
same,nesting (cotton used) vs control (saline),"[2]; acute, 2 mg/kg s.c., 3-4 h",not significantly different
same,nesting (cotton used) vs control (saline),"[2]; acute, 2 mg/kg s.c., 4-5 h",not significantly different
same,nesting (cotton used) vs control (saline),"[2]; acute, 2 mg/kg s.c., 5-24 h",suppressed the nesting score significantly
same,fractional nesting score (nesting score divided by average of vehicle group),"[2]; acute, 2 mg/kg s.c., first 5 hours",~1
same,nesting (cotton used) vs control (saline),"[2]; acute, 2 mg/kg s.c., overall 0-5 h",did not attenuate nesting
same,time of greatest suppression of nesting (fractional nesting score),"[2]; acute, 4 mg/kg s.c.",1 to 2 h
same,nesting (cotton used) vs control (saline),"[2]; acute, 4 mg/kg s.c., 0-1 h",no significant attenuation of nesting
same,overall nesting scores vs control (saline),"[2]; acute, 4 mg/kg s.c.",significantly below the control group
same,nesting (cotton used) vs control (saline),"[2]; acute, 4 mg/kg s.c., 1-2 h",significantly attenuated nesting
same,nesting (cotton used) vs control (saline),"[2]; acute, 4 mg/kg s.c., 2-3 h",No significant difference
same,nesting (cotton used) vs control (saline),"[2]; acute, 4 mg/kg s.c., 3-4 h",significantly reduced
same,nesting (cotton used) vs control (saline),"[2]; acute, 4 mg/kg s.c., 4-5 h",not significantly different
same,nesting (cotton used) vs control (saline),"[2]; acute, 4 mg/kg s.c., 5-24 h",suppressed the nesting score significantly
same,nesting (cotton used) vs control (saline),"[2]; acute, 4 mg/kg s.c., overall 0-5 h",significantly reduced
same,time of greatest suppression of nesting (fractional nesting score),"[2]; acute, 6 mg/kg s.c.",1 to 2 h
same,nesting (cotton used) vs control (saline),"[2]; acute, 6 mg/kg s.c., 0-1 h",no significant attenuation of nesting
same,overall nesting scores vs control (saline),"[2]; acute, 6 mg/kg s.c.",significantly below the control group
same,nesting (cotton used) vs control (saline),"[2]; acute, 6 mg/kg s.c., 1-2 h",significantly attenuated nesting
same,nesting (cotton used) vs control (saline),"[2]; acute, 6 mg/kg s.c., 2-3 h",significantly reduced
same,nesting (cotton used) vs control (saline),"[2]; acute, 6 mg/kg s.c., 3-4 h",significantly reduced
same,nesting (cotton used) vs control (saline),"[2]; acute, 6 mg/kg s.c., 4-5 h",not significantly different
same,nesting (cotton used) vs control (saline),"[2]; acute, 6 mg/kg s.c., 5-24 h",suppressed the nesting score significantly
same,nesting (cotton used) vs control (saline),"[2]; acute, 6 mg/kg s.c., overall 0-5 h",significantly reduced
same,suppression of NB vs control,"[2]; 2 mg/kg, 1-2 h",main attenuating effects
same,suppression of NB vs control,"[2]; 4 mg/kg, 0-1 h",most effective doses
same,suppression of NB vs control,"[2]; 6 mg/kg, 0-1 h",most effective doses
same,suppression of NB vs control,"[2]; 6 mg/kg, 1-2 h",main attenuating effects
same,overall nesting scores vs control,[2]; 2 mg/kg,significantly below the control group
same,overall nesting scores vs control,[2]; 4 mg/kg,significantly below the control group
same,overall nesting scores vs control,[2]; 6 mg/kg,significantly below the control group
same,effect on NB (ANOVA over dose groups),[2]; 2-3 h,No significant effect
same,effect on NB (ANOVA over dose groups),[2]; 3-4 h,No significant effect
same,effect on NB (ANOVA over dose groups),[2]; 4-5 h,No significant effect
same,potentiation of acetylcholine-induced whole cell responses,[3],370%
same,EC50,[3]; read-out: EC50 of potentiation,40 µM
